Experimental data: patent US20050004044A1, “Use of orsaponin [3beta, 16beta, 17 alpha-trihydroxycholost-5-en-22-one 16-0-(2-0-4-methoxybenzoyl-beta-D-xylopyranosyl)-(1->3)-(2-0-acetyl-alpha-L-arabinopyranoside)] or OSW-1 and its derivatives for cancer therapeutics” (priority 2003, published 2005)

Experiments:
HL-60 cells = assay: MTT cell growth inhibition, HL-60; assay type: cell-based; conditions: Homo sapiens, HL-60, 72 hours
Protocol: FIG. 2. Effect of Orsaponin (OSW-1) on cell growth in two human cancer cell lines including a leukemia and a lymphoma cell line. HL-60 (leukemia) and Raji cells (lymphoma) in exponentially growing phase were treated with the indicated concentrations of OSW-1 for 72 hours. Cell growth inhibition was measured by MTT assay.
(§1) Cells and Cell Lines. Various cancer cell lines were used including the human leukemia cell lines HL-60 and ML-1 cells; human lymphoma cell line Raji; human pancreatic cancer cells AsPC-1; and human ovarian cancer cells SKOV3; human colon cancer cells HCT116; as well as isolated CLL cells from patients; and lymphocytes from normal donors. Cells were grown and maintained as per protocols known in the art using appropriate cell culture media and supplements.
1. MTT Assays. For these assays either cancer cell lines were used. Alternatively, mononuclear cells from peripheral blood samples of CLL patients or normal donors were separated by Ficoll Hipaque fractionation and resuspended in DMEM complete medium. […] After the indicated number of days (usually 3 days or 72 hours) of exposure to OSW-1, cell survival was assessed by the addition of the MTT dye to the wells. […] Survival of cells under orsaponin treatment was evaluated as a percentage of control cell growth. […]

[1] = system: pancreatic cancer AsPC-1 cells; assay: MTT cell growth inhibition, AsPC-1; assay type: cell-based, human; conditions: AsPC-1, 72 h or 96 h
Protocol: FIG. 3. Effect of Orsaponin (OSW-1) on cell growth in human pancreatic cancer cells. Human pancreatic cancer AsPC-1 cells were treated with the indicated concentrations of OSW-1 for 72 h or 96 h. Cell growth inhibition was measured by MTT assay.
FIG. 4. The anticancer activity of Orsaponin (OSW-1) is not affected by NFκB expression in pancreatic cancer cells. Human pancreatic cancer cells AsPC-1 with constitutive activation of NFκB or inactivation of NFκB by dominant negative IκBα (AsPC-1/IκBα-ND) were treated with the indicated concentrations of OSW-1 for 72 h. Cell growth inhibition was measured by MTT assay.
as §1, with “Cells were grown and maintained as per protocols known in the art using appropriate cell culture media and supplements.” left out
1. […] After the indicated number of days (usually 3 days or 72 hours) of exposure to OSW-1, cell survival was assessed by the addition of the MTT dye to the wells. […] Survival of cells under orsaponin treatment was evaluated as a percentage of control cell growth. […]
(§2) The effect of Orsaponin and 17-deoxyorsaponin in pancreatic cancer cells was also assessed. […] Cell growth inhibition was measured by MTT assay.

ML-1 cells = assay: Mitochondrial transmembrane potential (rhodamine-123), ML-1; assay type: cell-based, human; conditions: ML-1, 1 nM, 16 and 24 h
Protocol: FIG. 11. Effect of orsaponin (OSW-1) on mitochondrial transmembrane potential ML-1 cells. The parental ML-1 line and its mutant with mitochondrial respiration defect, clone C19, were incubated with 1 nM OSW-1 for the indicated times. Change in mitochondrial transmembrane potential was measured by cytometry analysis, using rhodamine-123 as a potential-sensitive fluorescent probe.
3. Analysis of the Mitochondrial Transmembrane Potential. To evaluate the role of mitochondrial respiration in the cytotoxicity of OSW-1, changes in the potential of mitochondrial membrane were analyzed. Following the treatment of cells with OSW-1 for different time periods, cells were incubated with rhodamine-123 which is a potential-sensitive dye. Cytometric analysis was used to record changes in mitochondrial potential. […]
The effect of OSW-1 on mitochondrial transmembrane potential of ML-1 cells and the corresponding mitochondrial respiration defective mutant cell line C19 were analyzed by incubating with 1 nM OSW-1 for 4, 16 and 24 hours. Change in mitochondrial transmembrane potential was measured by cytometry analysis, using rhodamine-123 as a potential-sensitive fluorescent probe and are depicted in FIG. 11.

[2] = system: normal human astrocytes (immortalized with hTER); assay: MTT cell growth inhibition, normal astrocytes; assay type: cell-based; conditions: Astrocyte, 72 h
Protocol: (§3) 1. MTT Assays. For these assays either cancer cell lines were used. Alternatively, mononuclear cells from peripheral blood samples of CLL patients or normal donors were separated by Ficoll Hipaque fractionation and resuspended in DMEM complete medium. Malignant cells from various human cell lines (usually at 5×10^4 cells/ml) or mononuclear cells from peripheral blood of leukemia patients and healthy donors (1×10^6 cells/ml) were incubated in either αMEM or RPMI 1640 with or without various concentrations of OSW-1 in the range of 0-10 nM. Each experimental condition was done in triplicate. After the indicated number of days (usually 3 days or 72 hours) of exposure to OSW-1, cell survival was assessed by the addition of the MTT dye to the wells. The MTT dye changes its color depending on the presence of live cells in the well. Survival of cells under orsaponin treatment was evaluated as a percentage of control cell growth. Alternatively, one can also use the dye trypan-blue which penetrates dead cells thereby allowing one to count live cells under the microscope and estimating percentage survival.
To test the therapeutic selectivity of Orsaponin and 17-deoxyorsaponin, their effect on human brain tumor cells (U87 malignant glioma) and normal human astrocytes were compared. […] Cell growth inhibition was measured by MTT assay (FIG. 21).

[3] = system: human ovarian cancer SKOV3 cells; assay: Survival of nude mice inoculated i.p. with SKOV3; assay type: in vivo; conditions: i.p. 10 μg/kg/day, 5 days/week for two weeks
Protocol: FIG. 12. Nude mice were inoculated with human ovarian cancer SKOV3 cells (2×10^6/mouse, i.p., 10 mice/group). Drug treatment started on day 6 after tumor inoculation. OSW-1 was given by i.p. injection, 10 μg/kg/day, 5 days/week for two weeks.
Thus, nude mice were inoculated with human ovarian cancer SKOV3 cells at a concentration of 2×10^6/mouse, by the intraperitoneal route (i.p.) with 10 mice/group. Treatment with OSW-1 was started on day 6 after tumor inoculation. The control group was treated with saline. OSW-1 was given by i.p. injection, 10 μg/kg/day, 5 days/week for two weeks. […] When severe tumor burden and moribund signs appeared, euthanasia for the affected animal was performed according to IACUC standards.

[4] = system: malignant glioma U87-MG cells; assay: MTT cell growth inhibition, U87-MG glioma; assay type: cell-based, human
Protocol: as §3
To test the therapeutic selectivity of Orsaponin and 17-deoxyorsaponin, their effect on human brain tumor cells (U87 malignant glioma) and normal human astrocytes were compared. The normal human astrocytes were previously immortalized by transfection with hTER to allow a long-term culture in vitro. The antiproliferative effect of Orsaponin in human malignant glioma cells (U87-MG) and normal human astrocytes was examined. Cells were incubated with various concentrations of Orsaponin for 72 h. Cell growth inhibition was measured by MTT assay (FIG. 21).

ML-1 leukemia cells = assay: MTT cell growth inhibition, ML-1; assay type: cell-based, human; conditions: Homo sapiens, 72 h, ML-1, 72 h
Protocol: as §3
Anticancer activities of Orsaponin and 17-deoxyorsaponin were examined in human leukemia cells (ML-1) and human lymphoma cells (Raji). Cells were incubated with various concentrations of Orsaponin and 17-deoxyorsaponin for 72 h, and cell growth inhibition was measured by MTT assay.
The effect of 17-deoxyorsaponin in human ovarian cancer cells was determined. SKOV3 ovarian cancer cells were incubated with various concentrations of 17-deoxyorsaponin for 72 h. Cell growth inhibition was measured by MTT assay (FIG. 17). […] The effect of 17-deoxyorsaponin in human acute myeloid leukemia cells was also examined. ML-1 leukemia cells were incubated with various concentrations of 17-deoxyorsaponin for 72 h and cell growth inhibition was measured using the MTT assay (FIG. 18).

[5] = system: normal human pulmonary cells; conditions: Mimaki et al., 1997; read-out: IC50, toxicity to normal human pulmonary cells; cited from earlier work
[6] = system: pancreatic cancer (Panco-2) cells; assay: MTT cell growth inhibition, Panco-2; assay type: cell-based; conditions: Mus musculus, Panco-2, 72 h
Protocol: as §3, §2

Which IC50 (HL-60 cells) does the source give for `COc1ccc(C(=O)OC2C(OC3C(O)COC(O[C@H]4C[C@H]5[C@@H]6CC=C7C[C@@H](O)CC[C@]7(C)[C@H]6CC[C@]5(C)[C@@]4(O)[C@H](C)C(=O)CCC(C)C)C3OC(C)=O)OCC(O)C2O)cc1` (stereo partly drawn) [OSW-1, 3β, 16β, 17 α-trihydroxycholost-5-en-22-one 16-O-(2-O-4-methoxybenzoyl-β-D-xylopyranosyl)-(1->3)-(2-O-acetyl-α-L-arabinopyranoside)] here?
Its IC50 is < 0.5 nM.

What about the “concentrations at which highly potent” value [1] of the same molecule?
Its value is 0.1 to 5 nM.

What about the “change in mitochondrial transmembrane potential” value (ML-1 cells) of the same molecule?
Its value is “substantial loss of mitochondrial transmembrane potential”.

And the IC50 [2]?
The IC50 was ~1 nM.

What about the Survival % ([3]; 30 days) of the same molecule?
The Survival % was 100%.

What about the Survival % ([3]; 60 days) of the same molecule?
Its Survival % is 50%.

And the IC50 ([4]; Homo sapiens, U-87 MG, U87-MG, 72 h, MTT)?
Its IC50 is < 0.1 nM.

What about the “sensitivity of glioma cells compared with normal astrocytes” value ([4]; U87-MG vs normal human astrocytes) of the same molecule?
Its value is “much more sensitive”.

And the IC50 (ML-1 leukemia cells)?
The IC50 was < 0.1 nM.

What about the IC50 [5] of the same molecule?
The IC50 was 1500 nM.

And the IC50 [6]?
The IC50 was 0.1 nM.
